Experiments:
hSTING(R232) = hSTING(R232) (Homo sapiens, UniProt Q86WV6, H232R); experiment: Luciferase reporter assay in HEK293T-hSTING-Luciferase cells, R232 (wild type) human STING; assay type: cell-based; settings: 20 hr stimulation, read-out: R232 human activity (EC50 range)
Procedure, shortened: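 After 20 hr compound stimulation of 5×10^5 cells, secreted luciferase in the supernatant was measured by luminescence; values are fold-induction over baseline and EC50. The line is a clonal HEK293T stably carrying a STING plasmid (pUNO-1) and a luciferase reporter under five tandem ISREs fused to an ISG54 promoter.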

[1] = target: cynomolgus monkey STING protein (Macaca fascicularis, UniProt A0A2R3XZA6); experiment: Luciferase reporter assay, cynomolgus monkey STING overexpressed in HEK293T cells; assay type: cell-based; settings: cynomolgus monkey STING overexpressed in HEK293T cells; read-out: Cynomolgus monkey STING activity (EC50 range)
Procedure: 5×10^5 clonally selected HEK293T-hSTING-Luciferase cells were seeded in 384-well plates in growth medium and stimulated with novel compounds. After 20 hr of stimulation supernatant were removed and secretary reporter gene activity were measured using the Quanti-Luc detection system (Invivogen) on a Spectramax i3X luminometer.
In the tables below, EC50 value ranges for exemplary compounds are given.
Selected compounds were further tested against cynomolgus monkey STING protein overexpressed in HEK293T cells.

hSTING(R232), sequence (Q86WV6 whole entry H232R, the tested form may be a part): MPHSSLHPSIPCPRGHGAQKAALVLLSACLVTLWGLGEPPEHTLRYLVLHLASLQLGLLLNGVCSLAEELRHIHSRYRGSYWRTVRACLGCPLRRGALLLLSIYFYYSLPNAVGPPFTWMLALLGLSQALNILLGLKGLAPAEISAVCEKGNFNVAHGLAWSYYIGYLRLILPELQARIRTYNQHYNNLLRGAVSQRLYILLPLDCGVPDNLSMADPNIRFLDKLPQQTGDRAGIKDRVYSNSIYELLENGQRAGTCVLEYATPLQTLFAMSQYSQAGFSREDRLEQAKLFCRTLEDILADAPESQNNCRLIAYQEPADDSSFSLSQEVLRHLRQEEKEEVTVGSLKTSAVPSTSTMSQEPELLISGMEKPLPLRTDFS
cynomolgus monkey STING protein, sequence (A0A2R3XZA6 entry or part of it): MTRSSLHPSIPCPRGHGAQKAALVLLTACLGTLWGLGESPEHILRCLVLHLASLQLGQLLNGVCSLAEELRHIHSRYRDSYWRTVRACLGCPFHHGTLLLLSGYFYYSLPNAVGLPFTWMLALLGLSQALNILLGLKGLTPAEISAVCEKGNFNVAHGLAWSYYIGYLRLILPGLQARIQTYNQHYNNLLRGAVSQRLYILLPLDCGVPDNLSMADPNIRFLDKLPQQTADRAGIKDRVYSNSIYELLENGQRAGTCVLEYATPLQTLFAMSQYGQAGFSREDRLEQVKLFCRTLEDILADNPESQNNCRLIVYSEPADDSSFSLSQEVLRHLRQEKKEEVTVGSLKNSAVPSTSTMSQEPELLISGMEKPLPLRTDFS

Row | Structure (SMILES) | EC50 (hSTING(R232)) [µM] | EC50 [1] [µM]
1 | C[C@H]1c2ccc(C(=O)NCc3c(F)cc(F)cc3F)cc2N(Cc2c(F)cc(OCCOP(=O)(O)O)cc2F)C(=O)N1C [Example 97, (S)-2-(4-((3,4-dimethyl-2-oxo-7-((2,4,6-trifluorobenzyl)carbamoyl)-3,4-dihydroquinazolin-1(2H)-yl)methyl)-3,5-difluorophenoxy)ethyl dihydrogen phosphate] | < 1 | < 1
2 | C[C@H]1c2ccc(C(=O)NCc3c(F)cc(OP(=O)(O)O)cc3F)cc2N(Cc2c(F)cccc2Cl)C(=O)N1C [Example 101, (S)-4-((1-(2-chloro-6-fluorobenzyl)-3,4-dimethyl-2-oxo-1,2,3,4-tetrahydroqinazoline-7-carboxamido)methyl)-3,5-difluorophenyl dihydrogen phosphate] | 1 to 10 | 1 to 10
3 | C[C@H]1c2ccc(C(=O)NCc3c(F)cc(F)cc3F)cc2N(Cc2c(F)ccc(OP(=O)(O)O)c2F)C(=O)N1C [Example 102, (S)-3-((3,4-dimethyl-2-oxo-7-((2,4,6-trifluorobenzyl)carbamoyl)-3,4-dihydroquinazolin-1(2H)-yl)methyl)-2,4-difluorophenyl dihydrogen phosphate] | < 1 | < 1
4 | C[C@H]1c2ccc(C(=O)NCc3c(F)cc(F)cc3F)cc2N(Cc2c(F)ccc(OCCOP(=O)(O)O)c2F)C(=O)N1C [Example 103, (S)-2-(3-((3,4-dimethyl-2-oxo-7-((2,4,6-trifluorobenzyl)carbamoyl)-3,4-dihydroquinazolin-1(2H)-yl)methyl)-2,4-difluorophenoxy)ethyl dihydrogen phosphate] | < 1 | < 1
5 | C[C@H]1c2ccc(C(=O)NCc3c(F)cc(F)cc3F)cc2N(Cc2c(F)cc(F)cc2OP(=O)(O)O)C(=O)N1C [Example 105, (S)-2-((3,4-dimethyl-2-oxo-7-((2,4,6-trifluorobenzyl)carbamoyl)-3,4-dihydroquinazolin-1(2H)-yl)methyl)-3,5-difluorophenyl dihydrogen phosphate] | < 1 | < 1
6 | CC(=O)Nc1ccc(COC(=O)Oc2ccc(F)c(CN3C(=O)N(C)[C@@H](C)c4ccc(C(=O)NCc5c(F)cc(F)cc5F)cc43)c2Cl)cc1 [Example 139, (S)-4-Acetamidobenzyl-(2-chloro-3-((3,4-dimethyl-2-oxo-7-((2,4,6-trifluorobenzyl)carbamoyl)-3,4-dihydroquinazolin-1(2H)-yl)methyl)-4-fluorophenyl) carbonate] | < 1 | < 1
7 | C=CCOc1cc(F)c(CN2C(=O)N(C)[C@@H](C)c3ccc(C(=O)NCc4c(F)cc(F)cc4F)cc32)c(F)c1 [Example 144] | < 1 | < 1
8 | C[C@H]1c2ccc(C(=O)NCc3c(F)cc(F)cc3F)cc2N(Cc2c(F)cc(OCC(O)CO)cc2F)C(=O)N1C (stereo partly drawn) [Example 145, (4S)-1-(4-(2,3-Dihydroxypropoxy)-2,6-difluorobenzyl)-3,4-dimethyl-2-oxo-N-(2,4,6-trifluorobenzyl)-1,2,3,4-tetrahydroquinazoline-7-carboxamide] | < 1 | < 1
9 | C[C@H]1c2ccc(C(=O)NCc3c(F)cc(F)cc3F)cc2N(Cc2c(F)cc(OC[C@H](O)CO)cc2F)C(=O)N1C [Example 146, (S)-1-(4-((R)-2,3-Dihydroxypropoxy)-2,6-difluorobenzyl)-3,4-dimethyl-2-oxo-N-(2,4,6-trifluorobenzyl)-1,2,3,4-tetrahydroquinazoline-7-carboxamide] | < 1 | < 1
10 | COc1cc(F)c(CNC(=O)c2ccc3c(c2)N(Cc2c(F)cc(OC)cc2F)C(=O)N(C)[C@H]3C)c(F)c1 [Example 149, (S)—N,1-bis(2,6-difluoro-4-methoxybenzyl)-3,4-dimethyl-2-oxo-1,2,3,4-tetrahydroquinazoline-7-carboxamide] | < 1 | < 1
11 | Cc1cccc(CN2C(=O)N(C)C(C)c3ccc(C(=O)NCc4c(F)cc(F)cc4F)cc32)c1F (centres unmarked) [Example 164, 1-(2-fluoro-3-methylbenzyl)-3,4-dimethyl-2-oxo-N-(2,4,6-trifluorobenzyl)-1,2,3,4-tetrahydroquinazoline-7-carboxamide] | < 1 | < 1
12 | COc1cc(F)c(CN2C(=O)N(C)C(C)c3ccc(C(=O)NCc4c(F)cc(F)cc4F)cc32)c(F)c1 (centres unmarked) [Example 165, 1-(2,6-difluoro-4-methoxybenzyl)-3,4-dimethyl-2-oxo-N-(2,4,6-trifluorobenzyl)-1,2,3,4-tetrahydroquinazoline-7-carboxamide] | < 1 | < 1
13 | COc1ccc(F)c(CN2C(=O)N(C)C(C)c3ccc(C(=O)NCc4c(F)cc(F)cc4F)cc32)c1 (centres unmarked) [Example 166, 1-(2-fluoro-5-methoxybenzyl)-3,4-dimethyl-2-oxo-N-(2,4,6-trifluorobenzyl)-1,2,3,4-tetrahydroquinazoline-7-carboxamide] | < 1 | 1 to 10
14 | Cc1cccc(CN2C(=O)N(C)[C@@H](C)c3ccc(C(=O)NCc4c(F)cc(F)cc4F)cc32)c1F [Example 168, (S)-1-(2-fluoro-3-methylbenzyl)-3,4-dimethyl-2-oxo-N-(2,4,6-trifluorobenzyl)-1,2,3,4-tetrahydroquinazoline-7-carboxamide] | < 1 | < 1
15 | Cc1ncc(Cl)c(CN2C(=O)N(C)C(C)c3ccc(C(=O)NCc4c(F)cc(F)cc4F)cc32)c1F (centres unmarked) [Example 176, 1-((5-chloro-3-fluoro-2-methylpyridin-4-yl)methyl)-3,4-dimethyl-2-oxo-N-(2,4,6-trifluorobenzyl)-1,2,3,4-tetrahydroquinazoline-7-carboxamide] | < 1 | < 1
16 | COc1ccc(F)c(F)c1CN1C(=O)N(C)C(C)c2ccc(C(=O)NCc3c(F)cc(F)cc3F)cc21 (centres unmarked) [Example 178, 1-(2,3-difluoro-6-methoxybenzyl)-3,4-dimethyl-2-oxo-N-(2,4,6-trifluorobenzyl)-1,2,3,4-tetrahydroquinazoline-7-carboxamide] | < 1 | < 1
17 | COc1ccc(F)c(CN2C(=O)N(C)[C@@H](C)c3ccc(C(=O)NCc4c(F)cc(F)cc4F)cc32)c1 [Example 183, (S)-1-(2-fluoro-5-methoxybenzyl)-3,4-dimethyl-2-oxo-N-(2,4,6-trifluorobenzyl)-1,2,3,4-tetrahydroquinazoline-7-carboxamide] | < 1 | < 1
18 | COc1ncc(Cl)c(CN2C(=O)N(C)[C@@H](C)c3ccc(C(=O)NCc4c(F)cc(F)cc4F)cc32)c1F [Example 184, (S)-1-((5-chloro-3-fluoro-2-methoxypyridin-4-yl)methyl)-3,4-dimethyl-2-oxo-N-(2,4,6-trifluorobenzyl)-1,2,3,4-tetrahydroquinazoline-7-carboxamide] | < 1 | < 1
19 | C[C@H]1c2ccc(C(=O)NCc3c(F)cc(F)cc3F)cc2N(Cc2c(F)cc(OCCOC(=O)CN)cc2F)C(=O)N1C [Example 187, (S)-2-(4-((3,4-dimethyl-2-oxo-7-((2,4,6-trifluorobenzyl)carbamoyl)-3,4-dihydroquinazolin-1(2H)-yl)methyl)-3,5-difluorophenoxy)ethyl 2-aminoacetate] | < 1 | < 1
20 | CC1c2ccc(C(=O)NCc3c(F)cc(F)cc3F)cc2N(Cc2ccccc2F)C(=O)N1C (centres unmarked) [Example 202, 1-(2-fluorobenzyl)-3,4-dimethyl-2-oxo-N-(2,4,6-trifluorobenzyl)-1,2,3,4-tetrahydroquinazoline-7-carboxamide] | < 1 | < 1
21 | CC1c2ccc(C(=O)NCc3c(F)cc(F)cc3F)cc2N(Cc2c(F)cccc2C(F)(F)F)C(=O)N1C (centres unmarked) [Example 209, 1-(2-fluoro-6-(trifluoromethyl)benzyl)-3,4-dimethyl-2-oxo-N-(2,4,6-trifluorobenzyl)-1,2,3,4-tetrahydroquinazoline-7-carboxamide] | < 1 | < 1
22 | CC1c2ccc(C(=O)NCc3c(F)cc(F)cc3F)cc2N(Cc2cc(O)ccc2F)C(=O)N1C (centres unmarked) [Example 231, 1-(2-fluoro-5-hydroxybenzyl)-3,4-dimethyl-2-oxo-N-(2,4,6-trifluorobenzyl)-1,2,3,4-tetrahydroquinazoline-7-carboxamide] | < 1 | < 1
23 | C[C@H]1c2ccc(C(=O)NCc3c(F)cc(F)cc3F)cc2N(Cc2c(OCCO)ccc(F)c2F)C(=O)N1C [Example 254, (S)-1-(2,3-difluoro-6-(2-hydroxyethoxy)benzyl)-3,4-dimethyl-2-oxo-N-(2,4,6-trifluorobenzyl)-1,2,3,4-tetrahydroquinazoline-7-carboxamide] | < 1 | 1 to 10
24 | C[C@H]1c2ccc(C(=O)NCc3c(F)cc(F)cc3F)cc2N(Cc2c(F)ccc(O)c2F)C(=O)N1C [Example 255, (S)-1-(2,6-difluoro-3-hydroxybenzyl)-3,4-dimethyl-2-oxo-N-(2,4,6-trifluorobenzyl)-1,2,3,4-tetrahydroquinazoline-7-carboxamide] | < 1 | < 1
25 | C[C@H]1c2ccc(C(=O)NCc3c(F)cc(F)cc3F)cc2N(Cc2c(F)ccc(OCCO)c2F)C(=O)N1C [Example 256, (S)-1-(2,6-difluoro-3-(2-hydroxyethoxy)benzyl)-3,4-dimethyl-2-oxo-N-(2,4,6-trifluorobenzyl)-1,2,3,4-tetrahydroquinazoline-7-carboxamide] | < 1 | 1 to 10

— patent publication US11571423B2, “Small molecule modulators of human sting” (Curadev Pharma Limited, priority 2017, dated 2023)
